# Results: US12606536B2, “Bioactive phenolate ionic complexes” (priority 2020, dated 2026)
# Counter-ions that a name gives are not always drawn.
# How the values were obtained:
# [1] = PO 12 mg/kg semaglutide; for T0.5 of semaglutide: n = 3
# Method: All compounds are powders and each material ratio is by mass.
# Animals are anesthetized for the period of surgery. An indwelling cannula is placed in the right jugular vein of each animal for systemic blood sampling. The cannula is tunnelled beneath the skin and exteriorized at the dorsal part of the neck. After completion of the surgical procedure, the animals are transferred to individual cages to recover overnight (12-18 h). During said recovery period, food, but not water, is deprived if an oral absorption experiment is conducted. Throughout the experiments, free access to food is available 4 h post oral administration.
# Animals are randomly assigned to the different experimental groups. […] Systemic blood samples (0.36 ml) are obtained by intravenous cannula, placed in the jugular vein. In the case of oral administration, samples are taken at 5 minutes pre-dose and at different time points post dose, according to the pharmacokinetic profile (blood will be drawn no more than 10% of rat blood volume). To prevent dehydration, equal volumes of physiological solution are administered to the rats following each blood sampling. Plasma is separated by centrifugation (4000 rpm, 7 minutes, 4 °C) and stored at −20° C. pending analysis. Plasma samples were analyzed by a developed LC-MS method for Semaglutide.
# PK parameters were extracted from the data in a semi-logarithmic scale. […] It is further important to mention that the formulations were prepared by mass ratios.
# AUC0-∞^# was calculated for infinity by using the terminal slope.
# [2] = HPLC analysis of regenerated CBD from CBD-Choline (1:1) at pH 1.0; format: physicochemical; settings: HCl solution pH = 1.0, 30 min, chloroform extraction
# various viruses = settings: plants in polystyrene trays containing the salt; blank trays heavily infected
# Excerpt: These trays were used for planting tomato plants contaminated with various viruses.
# [3] = Regeneration of thymol from thymol-salts in 0.1 N HCl; format: physicochemical; settings: 0.1N HCl solution (pH = 1), 30 min, heptane extraction
# Method: Experimental procedure for regeneration studies: Regeneration studies were performed for 2-isopropyl-5-methylphenolate-salts in the 0.1 N HCl solution (1 pH) followed by extracting free thymol with heptane. The appropriate amount of the corresponding thymol-salt (Table 12) was brought into the 20 mL glass vial. To this, 10 mL of 0.1 N was added. The resultant mixture was kept in a shaker for 30 min. After 30 min of acid treatment, 10 mL of heptane was added to the reaction mixture. The collected organic layer was separated from the water layer and carefully dried using rotavapor followed by drying under a temperature-controlled hot oven at 35° C. for 12 h.
# [4] = NMR
# [5] = Water solubility of CBD metal complexes; format: physicochemical
# Method: CBD metal complexes were tested for water solubility (Table 1).
# [6] = Reversibility of CBD salts to CBD on acidification; format: physicochemical; settings: dilute HCl, pH 3; 1H NMR
# Method: 1M HCl solution was added dropwise to aqueous solution of CBD-Na until pH of 3 was achieved. […] The ease of reversibility is paramount to the success of this work, as original compounds may be easily reconstituted by a simple chemical process.
# For all salts, adding acidic solution such as HCl, convert back the native CBD.
# [7] = Pharmacokinetics of CBD after IV administration, freely moving rats; format: in vivo
# Method: (§1) And dispersed in water to form a nano dispersion of about 30 nanometer. This dispersion was administered to rats by either IV or orally.
# For IV administration: Each molecule was dissolved (2% w/w) in pro-nano lipospheres (PNL) formulation (Table 3). Double-distilled water (DDW) was added to a final CBD concentration of 0.2% w/w in the nano-suspension.
# Pharmacokinetics (PK) in rats of Cannabidiol (CBD)-choline (Ch) salt following IV and oral administration: Pharmacokinetic study was performed using the freely moving rats model. For intravenously administration a dosage of 1 mg/kg was given (corrections for the salts are in Tables 4 and 5). Two groups were assigned randomly to be administered with either CBD (n=5) or Ch-CBD (n=4). Systemic blood samples (0.35 mL) were taken at 5-min pre-dose and at 5, 15 30 minutes and 1, 1.5, 2, 4, 6, and 8 hr. post dose.
# (§2) The oral formulation was administered to the animals by oral gavage with a dosage of 15 mg/kg (corrections for the salts are in Tables 4 and 5). Two groups were assigned randomly to be administered with either CBD (n=5) or Ch-CBD (n=3). Systemic blood samples (0.35 mL) were taken at 5-min pre-dose and at 0.33, 0.66, 1, 1.5, 2, 4, 6, 8 and 10 hr. post dose. To prevent dehydration, equal volumes of physiological solution were administered following each withdrawal of blood sample. Plasma was separated by centrifugation (4000 rpm, 10 min) and stored at −20° C. pending analysis. Plasma aliquots of 150 μL were spiked with 10 μL of internal standard cannabigerol (CBG; 1 μg/mL). ACN (200 μL) was added to each test tube (tubes A) and vortex-mixed for 1 min. The extraction of CBD and CBG was performed by N-hexane (3 mL) that was added to each test tube (tubes A), followed by 1 min. vortex-mixing. After centrifugation at 4000 rpm for 10 min, the n-hexane organic layer was transferred to fresh glass test tubes (tubes B) and evaporated to dryness (Vacuum Evaporation System, Labconco, Kansas City, MO). Then, tubes B were reconstituted in 80 μL of ACN: water (80:20). The resulting solution (80 μl) was injected into the HPLC-MS system. Column used: XTerra MS C18 Column 3.5 μm 2.1×100 mm column (Waters®, Milford, MA). Mobile phase: an isocratic mobile phase of 20:80 (v/v) 2 mM ammonium acetate/acetonitrile. Diluent: 20:80 (v/v) water/acetonitrile. Flow rate: 0.2 mL/min. Column temperature: 35° C.±5° C. Sample Temperature: 20° C.±5° C. The detection masses (m/z): CBG—312.2 and CBD-313.2, with negative electrospray.
# (§3) The amounts found in the plasma for the salts were adjusted with the 0.17 correction factor mentioned in Table 6, to resemble dosage of 1 mg/kg for IV administration and 15 mg/kg for oral administration.
# [8] = Pharmacokinetics of CBD after oral administration, freely moving rats; format: in vivo
# Method: as §1
# For oral administration: Each molecule was dissolved (5% w/w) in pro-nano lipospheres (PNL) formulation (Table 2). Double-distilled water (DDW) was added to a final CBD concentration of 0.5% w/w in the nano-suspension.
# as §2, §3
# [9] = octanol/water
# [10] = Oxidation stability (air bubbled through and sun light, HPLC); format: physicochemical; settings: exposed to air bubbled through and sun light for 24 hours
# Method: A solution of CBD in ethanol was exposed to air bubbled through and sun light. […] When the CBD metal complexes were exposed to air bubbled through oxidation and sun light for 24 hours, no change in CBD content is found, as determined by HPLC.
# mold = assay: Hay bale packed in coated packaging; settings: after 2 weeks; control bale became moldy
# Excerpt: The copper and zinc-thymol salts were incorporated in polystyrene foam, in a hydrogel during their manufacturing and in coating material of potato seeds and hay packaging material. Moreover, the thymol copper was incorporated in polyethylene sheets during melt extrusion. The salts were incorporated in these formulations while thymol could not be incorporated due to its evaporation rate and low melting point. Thymol was constantly released to air over a period of 3 weeks while protecting the hay from microbial contamination.
# In a typical experiment, fresh hay was packed with thymol coated and copper-thymol salt coated packaging. After 2 weeks, the control bale became moldy.
compound,measurement,setting,value
O=C([O-])CCCCCCCNC(=O)c1ccccc1O.[Na+] [SNAC-Na],Semaglutide absorption compared with the SNAC formulation,[1],didn't contribute to the semaglutide absorption
C=C(C)C1CCC(C)=CC1c1c(O)cc(CCCCC)cc1O (stereo not shown) [CBD-Choline (1:1) salt],CBD regenerat. (%),[2],67.01%
same,CBD regenerat. (%),[2]; listed as CBD-Choline (1:1),about 67.0%
O=C([O-])c1ccccc1.O=C([O-])c1ccccc1.[Cu+2] [copper benzoate],Infection of tomato plants,various viruses,did not demonstrate any infection
O=C([O-])CCCCCCCNC(=O)c1ccccc1[O-].[Na+].[Na+] [SNAC-Na],T0.5 of semaglutide,[1],2.26 ± 1.07 h
"Cc1ccc(C(C)C)c(O)c1 [Thymol salt Zinc (II), zinc(II) 2-isopropyl-5-methylphenolate]",% of thymol regenerated,[3]; listed as Zinc (II),59%
2Na(2-isopropyl-5-methylphenolate)4Zn [Thymol salt 2Na4Zn],% of thymol regenerated,[3],74%
"Cc1ccc(C(C)C)c(O)c1 [Thymol salt Silver, silver 2-isopropyl-5-methylphenolate]",% of thymol regenerated,[3]; listed as Silver,57%
manganese (II) 2-isopropyl-5-methylphenolate [Thymol salt Manganese(II)],% of thymol regenerated,[3],77%
"O=C([O-])CCCCCCCNC(=O)c1ccccc1O.[Na+] [SNAC, Salcaprozate Sodium]",Behaviour on reducing the pH to acidic pH (1.2),[4],precipitated
"Cc1ccc(C(C)C)c([O-])c1.[Li+] [Thymol salt Lithium, lithium 2-isopropyl-5-methylphenolate]",% of thymol regenerated,[3],63%
C=C(C)C1CCC(C)=CC1c1c([O-])cc(CCCCC)cc1[O-].[Na+].[Na+] (stereo not shown) [CBD-Na],Solubility in water,[5],10000 µg/mL
same,Conversion back to CBD on acidification,[6],confirmed by ^1H NMR to be CBD
"Cc1ccc(C(C)C)c([O-])c1.[K+] [Thymol salt Potassium, potassium 2-isopropyl-5-methylphenolate]",% of thymol regenerated,[3],57%
"CCCC[N+](CCCC)(CCCC)CCCC [Thymol salt Tetrabutylammonium, tetrabutylammonium 2-isopropyl-5-methylphenolate]",% of thymol regenerated,[3],94%
C=C(C)C1CCC(C)=CC1c1c([O-])cc(CCCCC)cc1[O-].[K+].[K+] (stereo not shown) [CBD-K],Solubility in water,[5],2000 µg/mL
C[N+](C)(C)CCO.O=C([O-])CCCCCCCNC(=O)c1ccccc1[O-].[Na+] [SNAC-CH],T0.5 of semaglutide,[1],2.62 ± 0.35 h
"Cc1ccc(C(C)C)c([O-])c1.[Na+] [Thymol salt Sodium, sodium 2-isopropyl-5-methylphenolate]",% of thymol regenerated,[3],68%
C=C(C)C1CCC(C)=CC1c1c([O-])cc(CCCCC)cc1[O-].C[N+](C)(C)CCO.C[N+](C)(C)CCO (stereo not shown) [CBD-Choline],Conversion back to CBD on acidification,[6],successfully regenerated
same,T0.5,"[7]; IV, MS correction (0.17), PNL, n = 4",0.98 h
same,T0.5,"[7]; IV, MW adjustment (0.6), PNL, n = 4",1.07 h
same,Blood levels after IV compared with CBD,"[7]; rats, IV",comparable
same,T0.5,"[8]; PO, MS correction (0.17), n = 3",1.37 ± 0.47 h
same,T0.5,"[8]; PO, MW adjustment (0.6), n = 3",1.37 ± 0.47 h
same,Log P,[9],1.71
"C=C(C)[C@@H]1CCC(C)=C[C@H]1c1c(O)cc(CCCCC)cc1O [CBD, cannabidiol]",solubility,[5]; water,12.6 µg/mL
same,Change in CBD content,[10],decrease in CBD content
same,CBD regenerat. (%),[2],100.00%
same,T0.5,"[7]; IV 1 mg/kg in PNL, n = 5",1.45 h
same,clearance,"[7]; rat, plasma, IV 1 mg/kg in PNL, n = 5",56.3 mL/min/kg
same,Vd,"[7]; rat, plasma, IV 1 mg/kg in PNL, n = 5, read-out: Volume of distribution",7.02 L/kg
same,AUC(0-inf),"[7]; rat, CBD in plasma, IV 1 mg/kg in PNL formulation suspended (X10) in water, until 8 hours, n = 5",300 ng·h/mL
same,T0.5,"[8]; PO 15 mg/kg in PNL, n = 5",1.05 ± 0.46 h
same,AUC(0-inf),"[8]; rat, plasma, PO 15 mg/kg in PNL, calculated for infinity by the terminal slope, n = 5",846 ± 321 ng·h/mL
same,bioavailability,"[8]; rat, plasma, PO 15 mg/kg in PNL, calculated using data of CBD in PNL by IV administration, read-out: Fabs (%) (Absolute bioavailability)",18.8 ± 7.1%
same,Cmax,"[8]; rat, plasma, PO 15 mg/kg in PNL, n = 5",200 ± 79.5 ng/mL
same,AUC(0-t),"[8]; rat, CBD in plasma, PO 15 mg/kg in PNL formulation suspended (X10) in water, until 10 hours, n = 5, read-out: AUC0-10",841 ± 319 ng·h/mL
"Cc1ccc(C(C)C)c(O)c1 [Thymol salt Copper (II), copper(II) 2-isopropyl-5-methylphenolate]",% of thymol regenerated,[3]; listed as Copper (II),72%
same,Mold on hay bale,mold,has not shown any mold
"Cc1ccc(C(C)C)c(O)c1 [Thymol salt Ferrous (II), ferrous (II) 2-isopropyl-5-methylphenolate]",% of thymol regenerated,[3],97%
